Results from patent US20230084354A1, “NUTRACEUTICAL EXTRACTS OF HIPPOPHAE RHAMNOIDES AND TERMINALIA CHEBULA AND USES THEREOF” (Biomics, LLC, priority 2020, published 2023).

Test system: Human peripheral blood mononuclear cell (PBMC) cultures
Assay: CD69 and CD25 expression in human PBMC cultures, direct effects
Assay type: cell-based
Details: direct effect, 24 hours, vs untreated control; extract at the highest dose
Description: Next, the immune-modulating effects of the extract were tested. Human peripheral blood mononuclear cell (PBMC) cultures were used for this testing. A set of cultures were left untreated as negative control cultures for immune activation. Triplicate sets of cultures were treated with serial dilutions of the test product. The inflammatory bacterial lipopolysaccharide LPS from E. coli was used as a positive control for activation. The cultures were incubated for 24 hours, after which the cells and the culture supernatants were harvested and used to monitor the reactions in each culture. The cells were used for immunostaining and flow cytometry, specifically to evaluate the induction of two activation markers, CD69 and CD25, on NK cells, NKT cells, T lymphocytes, and monocytes/macrophages.

## Poly I:C
  CD69 expression on NK cells: increase
